The values below come from patent US20210308171A1, “METHODS FOR COMBINATORIAL SCREENING AND USE OF THERAPEUTIC TARGETS THEREOF” (THE BROAD INSTITUTE, INC., priority 2018, published 2021).

One assay relates to 293T cells. The experiment in a line: SaCas9 tiling library 6-thioguanine resistance screen. Type of assay: cell-based. The procedure: FIG. 10—Development of SaCas9 on-target rules. (a) Representation of all SaCas9 sgRNAs tested according to group and gene. sgRNAs are grouped based on whether the target gene is assayed by 6-thioguanine resistance, cell viability, or vemurafenib resistance. Control sgRNAs are also indicated. (b) Log 2 fold change of sgRNAs relative to their starting abundance in the plasmid DNA library in cell viability and resistance experiments. That knockout of NUDTS confers 6-thioguanine resistance in 293T cells but not A375 cell is expected based on previous results^16. P-values: Kruskal-Wallis test with Dunn's multiple comparisons test for each gene relative to the set of non-targeting controls. Significance labels: ns, not significant; *P<0.05; **P<0.01; ***P<0.001; ****P<0.0001.
Applicants designed a second tiling library with all sgRNAs with an NNGRR PAM that targeted 9 genes with known phenotypes in viability and drug resistance assays, a total of 5,327 sgRNAs, including controls (FIG. 10a). Applicants performed viability screens in three cell lines (A375, 293T, MOLM13), and screened relevant cell lines for 6-thioguanine (A375, 293T) and vemurafenib resistance (A375).

The subject of assay [1] is Meljuso, OVCAR8, and A549 cells. In words: Cell Titer Glo viability of cells transduced with single SaCas9 sgRNAs (MCL1, BCL2L1, BCL2L2 or controls) and treated with small molecule inhibitors. Type of assay: cell-based. The note with it: 3 days; for synergy of small molecule with sgRNAs targeting MCL1 (cell viability): both sgRNAs targeting MCL1, dosed from 1 nM to 1 μM. (Cellular ATP, detected with luciferase, serves as a proxy for viable cell number.)
Description: (b) Validation of genetic interactions with individual gene knockout combined with small molecules. Seven days after transduction with lentivirus expressing individual sgRNAs, cells were incubated with small molecules for three days before assaying viability by Cell Titer Glo. Points represent the average and whiskers represent the maximum and minimum of two replicate wells. […] Cells were incubated with small molecules for three days before assaying viability by Cell Titer Glo (top).
(a) As in FIG. 5b, cells were infected with individual sgRNAs and 7 days post-infection treated with small molecules over a range of doses. Cell viability was determined by Cell Titer Glo after 3 days.
Meljuso, OVCAR8, and A549 cells were transduced with single SaCas9 sgRNAs targeting MCL1, BCL2L1, or BCL2L2, or controls. […] Cells were dosed from 1 nM to 1 μM, and cell viability assessed (FIG. 5b, FIG. 15a).
Meljuso cells were transduced in 12-well plates, as described above, with lentivirus containing a single sgRNA targeting one of the anti-apoptotic genes (BCL2L1, BCL2L2, MCL1) or a control sgRNA either targeting CD81 or containing a run of 6 thymidines. Two days after transduction, cells were selected using puromycin at 1 μg/mL for five days. After puromycin selection, 3,000 cells were seeded into 96-well plates. Across each row of the 96-well plate, a different small molecule was added at 11 log 2-dilutions ranging from 1 μM to approximately 1 nM in duplicate for each of the cell lines. […] After 3 days in the presence of the small molecule, viability of the cell population was assayed by CellTiterGlo (Promega) according to the manufacturer's instructions.

In assay [2] the test system is MV4-11 (AML MLL-AF4) cells. The experiment in a line: BRD4 inhibitor dose response +/- WDR77 KO. Type of assay: cell-based. The source says:
FIG. 36—illustrates that WDR77 KO sensitizes MV4-11 (AML MLL-AF4) cells to AZD5153 treatment.

Assay [3] has as its system THP-1 (AML MLL-AF9) cells. In words: BRD4 inhibitor dose response +/- WDR77 KO.
Description: JQ1 dose response+/−WDR77 KO. Octuplicate wells. Repeated with two sgRNAs.
The experiments were performed in octuplicate wells and repeated with two sgRNAs. FIGS. 35 and 36 show AZD5153 dose response curves in THP-1 and MV4-11 cells that are +/−WDR77 knock-out.
In a further assay the test system is Meljuso cells. In words: Apoptosis Big Papi library screen with inhibitors of anti-apoptotic proteins. Type of assay: cell-based, human. The note with it: 250 nM, on/off dosing.

Description for Meljuso cells: (e) In Meljuso cells with single gene knockouts, comparison of resistance and sensitization phenotypes for two small molecules. The fold change values are calculated relative to the no drug arm for targeting sgRNAs paired with the 6T and HPRT intron controls. Genes of interest are colored and labeled. (f) Buffering interactions in Meljuso cells for combinations of multidomain apoptotic genes with BH3-only sensitizer genes in different growth conditions. Data from the three small molecules were combined for the final column. Heat map scale is the same as in panel c. (g) Buffering interactions in Meljuso cells for combinations of pro-apoptotic genes and caspase genes in standard growth conditions and the combined data from the three small molecules. Heat map scale is the same as in panel c.
Applicants next analyzed Meljuso cells screened with inhibitors, first examining single gene effects.
To examine combinatorial phenotypes, Applicants combined data across the three BCL2L1 inhibitors, to minimize effects due to molecule-specific mechanism of action.
Infections were conducted as described above for the SynLet library. […] All small molecules were screened at 250 nM with an on/off dosing schedule, in which cells were treated with small-molecule for 4 days and then grown in standard growth conditions for 3 days, and then this cycle was repeated for an additional week. All arms were collected at 21 days post-infection. For Meljuso cells, all three replicates were prepared and sequenced separately.

`Nc1nc2nc[nH]c2c(=S)[nH]1` [6-thioguanine]: the “effect of knockout of NUDTS on response to the drug” value in the assay with 293T cells is listed as “resistance”.
On to `Cc1c(-c2ccc(N3CCc4cccc(C(=O)Nc5nc6ccccc6s5)c4C3)nc2C(=O)O)cnn1CC12CC3CC(CC(C3)C1)C2` [A-1331852], for which, in assay [1], the “synergy of small molecule with sgRNAs targeting MCL1 (cell viability)” value is given as “strongly synergized”.
Take `COc1nnc2ccc(N3CCC(c4ccc(OCCN5CCN(C)C(=O)[C@H]5C)cc4)CC3)nn12` [AZD5153]: the “effect of WDR77 KO on response to treatment” value in assay [2] and in assay [3] was “sensitizes” in each case.
In the case of `Cc1sc2c(c1C)C(c1ccc(Cl)cc1)=N[C@@H](CC(=O)OC(C)(C)C)c1nnc(C)n1-2` [JQ1], the “effect of WDR77 KO on response to treatment” value in assay [3] is “sensitizes”.
As for `Cc1c(-c2c(-c3ccc(F)o3)sc3ncnc(O[C@H](Cc4ccccc4OCc4ccnn4CC(F)(F)F)C(=O)O)c23)ccc(OCCN2CCN(C)CC2)c1Cl` [S63845], the “synergy of small molecule with sgRNAs targeting BCL2L1 (cell viability)” value in assay [1] (sgRNAs targeting BCL2L1, dosed from 1 nM to 1 μM) is given as “synergized specifically”. Moreover, the “synergy with BCL2L1 knockout (single gene effect in screen)” value in the assay with Meljuso cells (relative to no drug arm) is recorded as “synergized”.
`CC1(C)CCC(c2ccc(Cl)cc2)=C(CN2CCN(c3ccc(C(=O)NS(=O)(=O)c4ccc(N[C@H](CCN5CCOCC5)CSc5ccccc5)c(S(=O)(=O)C(F)(F)F)c4)cc3)CC2)C1` [navitoclax]: the “synergy of small molecule with sgRNAs targeting MCL1 (cell viability)” value in assay [1] is reported as “strongly synergized”. Besides, in the assay on Meljuso cells, the “effect of knockout of BAX and PMAIP1 (Noxa) on response to the small molecule” value is “resistance”; the “effect of knockout of BCL2A1 on response to the small molecule” value is given as “sensitized”. Moreover, the “synergy with MCL1 knockout (single gene effect in screen)” value in the assay with Meljuso cells (relative to no drug arm) is “synergized”.
